The target of the assay is T1, Human thrombin (Homo sapiens, UniProt P00734).
T1 construct: purchased Haematologic Technologies Inc
Briefly: Inhibition of the protease activity of thrombin (chromogenic substrate S-2238). It is filed as biochemical. As to conditions: inhibition of the protease activity of thrombin.

SMILES strings stand for the structures.

In general, IC50 refers to the concentration at which inhibition is half-maximal. Under “class symbols a/b/c”, `CCOC(=O)n1nc(-c2cccnc2)nc1NCc1ccc(F)cc1` [Cmpd 192, ethyl 5-[(4-fluorophenyl)methyl]amino-3-(pyridin-3-yl)-1H-1,2,4-triazole-1-carboxylate] yielded a 50% inhibitory concentration (IC50) of 100 to 1000 nM. `COC(=O)c1n[nH]c(NC(=O)c2ccccc2F)n1` [Cmpd 193, methyl 5-[(2-fluorobenzene)amido]-1H-1,2,4-triazole-3-carboxylate] returned an IC50 (class symbols a/b/c) of more than 1000 nM. On the same count and under the same terms, the figure for `COC(=O)c1n[nH]c(NC(=O)c2ccccc2OC)n1` [Cmpd 194, methyl 5-[(2-methoxybenzene)amido]-1H-1,2,4-triazole-3-carboxylate] is more than 1000 nM; for `COC(=O)c1n[nH]c(NC(=O)c2cccc(Cl)c2)n1` [Cmpd 195, methyl 5-[(3-chlorobenzene)amido]-1H-1,2,4-triazole-3-carboxylate] it is more than 1000 nM; for `COC(=O)c1n[nH]c(NC(=O)c2ccc(C)cc2)n1` [Cmpd 196, methyl 5-[(4-methylbenzene)amido]-1H-1,2,4-triazole-3-carboxylate] it is more than 1000 nM. `COc1ccccc1C(=O)n1nc(-c2ccccn2)nc1NCc1cc2ccccc2s1` [Cmpd 198, N-(1-benzothiophen-2-ylmethyl)-1-[(2-methoxyphenyl)carbonyl]-3-(pyridin-2-yl)-1H-1,2,4-triazol-5-amine] registered an IC50 (class symbols a/b/c) of more than 1000 nM. On the same count and under the same terms, the figure for `COc1ccccc1C(=O)n1nc(-c2ccccn2)nc1NCc1csc2ccccc12` [Cmpd 199, N-(1-benzothiophen-3-ylmethyl)-1-[(2-methoxyphenyl)carbonyl]-3-(pyridin-2-yl)-1H-1,2,4-triazol-5-amine] is more than 1000 nM. The compound `O=C(Nc1ccccc1Cl)n1nc(-c2cccnc2)nc1NCc1ccc(F)cc1` [Cmpd 200, N-(2-chlorophenyl)-5-[(4-fluorophenyl)methyl]amino-3-(pyridin-3-yl)-1H-1,2,4-triazole-1-carboxamide] displayed an IC50 of more than 1000 nM. On the same count and under the same terms, the figure for `COc1ccccc1C(=O)n1nc(-c2ccccn2)cc1NCc1ccco1` [Cmpd 201, N-(furan-2-ylmethyl)-1-[(2-methoxyphenyl)carbonyl]-3-(pyridin-2-yl)-1H-pyrazol-5-amine] is 100 to 1000 nM; for `COc1ccccc1C(=O)n1nc(-c2ccccn2)cc1NCc1ccoc1` [Cmpd 202, N-(furan-3-ylmethyl)-1-[(2-methoxyphenyl)carbonyl]-3-(pyridin-2-yl)-1H-pyrazol-5-amine] it is 100 to 1000 nM.

Regarding `Fc1ccc(CNc2nc(-c3ccccn3)nn2CCc2ccccc2)cc1` [Cmpd 203, N-[(4-fluorophenyl)methyl]-1-(2-phenylethyl)-3-(pyridin-2-yl)-1H-1,2,4-triazol-5-amine], the IC50 is more than 1000 nM. On the same count and under the same terms, in the case of `Fc1ccc(CNc2nc(-c3ccccn3)n(CCc3ccccc3)n2)cc1` [Cmpd 204, N-[(4-fluorophenyl)methyl]-1-(2-phenylethyl)-5-(pyridin-2-yl)-1H-1,2,4-triazol-3-amine] it was more than 1000 nM. Still for that read-out and setting: the figure for `COc1cc(C)ccc1C(=O)n1nc(-c2ccccc2)nc1NCc1ccc(F)cc1` [Cmpd 205, N-[(4-fluorophenyl)methyl]-1-[(2-methoxy-4-methylphenyl)carbonyl]-3-phenyl-1H-1,2,4-triazol-5-amine] is 100 to 1000 nM. The compound `COc1ccccc1C(=O)n1nc(-c2ccncc2)nc1NCc1ccc(F)cc1` [Cmpd 207, N-[(4-fluorophenyl)methyl]-1-[(2-methoxyphenyl)carbonyl]-3-(pyridin-4-yl)-1H-1,2,4-triazol-5-amine] had an IC50 of less than 100 nM. Consider `COc1ccccc1C(=O)n1nc(-c2ccccc2)cc1NCc1ccc(F)cc1` [Cmpd 208, N-[(4-fluorophenyl)methyl]-1-[(2-methoxyphenyl)carbonyl]-3-phenyl-1H-pyrazol-5-amine], for which the half-inhibitory concentration (IC50) was more than 1000 nM. The same measure, in the same setting: in the case of `Cc1ccccc1C(=O)n1nc(-c2ccccc2)nc1NCc1ccc(F)cc1` [Cmpd 209, N-[(4-fluorophenyl)methyl]-1-[(2-methylphenyl)carbonyl]-3-phenyl-1H-1,2,4-triazol-5-amine] it was 100 to 1000 nM; in that of `O=C(c1ccco1)n1nc(-c2ccccn2)nc1NCc1ccc(F)cc1` [Cmpd 210, N-[(4-fluorophenyl)methyl]-1-[(furan-2-yl)carbonyl]-3-(pyridin-2-yl)-1H-1,2,4-triazol-5-amine], less than 100 nM. Take `O=C(c1ccco1)n1nc(-c2ccncc2)nc1NCc1ccc(F)cc1` [Cmpd 211, N-[(4-fluorophenyl)methyl]-1-[(furan-2-yl)carbonyl]-3-(pyridin-4-yl)-1H-1,2,4-triazol-5-amine]: the IC50 is less than 100 nM. Still for that read-out and setting: in the case of `O=C(c1ccoc1)n1nc(-c2ccccn2)nc1NCc1ccc(F)cc1` [Cmpd 212, N-[(4-fluorophenyl)methyl]-1-[(furan-3-yl)carbonyl]-3-(pyridin-2-yl)-1H-1,2,4-triazol-5-amine] it was less than 100 nM. The compound `O=C(c1ccoc1)n1nc(-c2cccnc2)nc1NCc1ccc(F)cc1` [Cmpd 213, N-[(4-fluorophenyl)methyl]-1-[(furan-3-yl)carbonyl]-3-(pyridin-3-yl)-1H-1,2,4-triazol-5-amine] came in with a half-inhibitory concentration (IC50) of less than 100 nM.

Regarding `O=C(c1ccoc1)n1nc(-c2ccncc2)nc1NCc1ccc(F)cc1` [Cmpd 214, N-[(4-fluorophenyl)methyl]-1-[(furan-3-yl)carbonyl]-3-(pyridin-4-yl)-1H-1,2,4-triazol-5-amine], the IC50 is less than 100 nM. On the same count and under the same terms, the figure for `O=C(N1CCCCC1)n1nc(-c2cccnc2)nc1NCc1ccc(F)cc1` [Cmpd 215, N-[(4-fluorophenyl)methyl]-1-[(piperidin-1-yl)carbonyl]-3-(pyridin-3-yl)-1H-1,2,4-triazol-5-amine] is more than 1000 nM; for `CCCn1nc(-c2ccccn2)nc1NCc1ccc(F)cc1` [Cmpd 216, N-[(4-fluorophenyl)methyl]-1-propyl-3-(pyridin-2-yl)-1H-1,2,4-triazol-5-amine] it is more than 1000 nM; for `CCCn1nc(NCc2ccc(F)cc2)nc1-c1ccccn1` [Cmpd 217, N-[(4-fluorophenyl)methyl]-1-propyl-5-(pyridin-2-yl)-1H-1,2,4-triazol-3-amine] it is more than 1000 nM. In turn, `Cc1c(-c2ccccc2)n[nH]c1N(Cc1ccc(F)cc1)C(=O)C(C)(C)C` [Cmpd 218, N-[(4-fluorophenyl)methyl]-2,2-dimethyl-N-(4-methyl-3-phenyl-1H-pyrazol-5-yl)propanamide] showed an IC50 of more than 1000 nM. Same read-out and setting: in the case of `O=C(c1ccsc1)n1nc(-c2ccccn2)nc1NCc1ccc(F)cc1` [Cmpd 219, N-[(4-fluorophenyl)methyl]-3-(pyridin-2-yl)-1-[(thiophen-3-yl)carbonyl]-1H-1,2,4-triazol-5-amine] it was less than 100 nM; in that of `O=C(c1ccsc1)n1nc(-c2cccnc2)nc1NCc1ccc(F)cc1` [Cmpd 220, N-[(4-fluorophenyl)methyl]-3-(pyridin-3-yl)-1-[(thiophen-3-yl)carbonyl]-1H-1,2,4-triazol-5-amine], less than 100 nM. Still for that read-out and setting: in the case of `O=C(c1cccs1)n1nc(-c2ccncc2)nc1NCc1ccc(F)cc1` [Cmpd 221, N-[(4-fluorophenyl)methyl]-3-(pyridin-4-yl)-1-[(thiophen-2-yl)carbonyl]-1H-1,2,4-triazol-5-amine] it was 100 to 1000 nM; in that of `O=C(c1ccsc1)n1nc(-c2ccccc2)nc1NCc1ccc(F)cc1` [Cmpd 222, N-[(4-fluorophenyl)methyl]-3-phenyl-1-[(thiophen-3-yl)carbonyl]-1H-1,2,4-triazol-5-amine], less than 100 nM. Compound `O=C(c1cn(-c2ccccn2)nc1NCc1ccc(F)cc1)N1CCCCC1` [Cmpd 225, N-[(4-fluorophenyl)methyl]-4-[(piperidin-1-yl)carbonyl]-1-(pyridin-2-yl)-1H-pyrazol-3-amine] displayed a half-inhibitory concentration (IC50) of more than 1000 nM. `COc1ccc(CNc2nc(-c3ccccn3)nn2C(=O)c2cccs2)cc1` [Cmpd 226, N-[(4-methoxyphenyl)methyl]-3-(pyridin-2-yl)-1-[(thiophen-2-yl)carbonyl]-1H-1,2,4-triazol-5-amine] gave a 50% inhibitory concentration (IC50) of more than 1000 nM.

Take `COc1ccc(CNc2nc(-c3ccccn3)nn2C(=O)c2ccsc2)cc1` [Cmpd 227, N-[(4-methoxyphenyl)methyl]-3-(pyridin-2-yl)-1-[(thiophen-3-yl)carbonyl]-1H-1,2,4-triazol-5-amine]: the concentration for half-maximal inhibition (IC50) fell in the range of 100 to 1000 nM. The compound `COc1ccc(CNc2nc(-c3cccnc3)nn2C(=O)c2ccsc2)cc1` [Cmpd 228, N-[(4-methoxyphenyl)methyl]-3-(pyridin-3-yl)-1-[(thiophen-3-yl)carbonyl]-1H-1,2,4-triazol-5-amine] yielded a 50% inhibitory concentration (IC50) of more than 1000 nM. On the same count and under the same terms, the figure for `COc1ccc(CNc2nc(-c3ccncc3)nn2C(=O)c2cccs2)cc1` [Cmpd 229, N-[(4-methoxyphenyl)methyl]-3-(pyridin-4-yl)-1-[(thiophen-2-yl)carbonyl]-1H-1,2,4-triazol-5-amine] is more than 1000 nM. On the same count and under the same terms, in the case of `COc1ccc(CNc2nc(-c3ccncc3)nn2C(=O)c2ccsc2)cc1` [Cmpd 230, N-[(4-methoxyphenyl)methyl]-3-(pyridin-4-yl)-1-[(thiophen-3-yl)carbonyl]-1H-1,2,4-triazol-5-amine] it was 100 to 1000 nM; in that of `O=C(c1cccc2c1OC(F)(F)O2)n1nc(-c2ccccn2)nc1NCc1ccccc1` [Cmpd 231, N-benzyl-1-[(2,2-difluoro-2H-1,3-benzodioxol-4-yl)carbonyl]-3-(pyridin-2-yl)-1H-1,2,4-triazol-5-amine], more than 1000 nM; in that of `O=C(c1cccc2c1OCCO2)n1nc(-c2ccccn2)nc1NCc1ccccc1` [Cmpd 232, N-benzyl-1-[(2,3-dihydro-1,4-benzodioxin-5-yl)carbonyl]-3-(pyridin-2-yl)-1H-1,2,4-triazol-5-amine], less than 100 nM. On the same count and under the same terms, in the case of `COc1cccc(C(=O)n2nc(-c3ccccn3)nc2NCc2ccccc2)c1OC` [Cmpd 233, N-benzyl-1-[(2,3-dimethoxyphenyl)carbonyl]-3-(pyridin-2-yl)-1H-1,2,4-triazol-5-amine] it was less than 100 nM. Turning to `COc1ccc(C(=O)n2nc(-c3ccccc3F)cc2NCc2ccccc2)c(OC)c1` [Cmpd 234, N-benzyl-1-[(2,4-dimethoxyphenyl)carbonyl]-3-(2-fluorophenyl)-1H-pyrazol-5-amine], the IC50 was more than 1000 nM.

For the origin of these results see patent publication US20170326125A1, “MULTISUBSTITUTED AROMATIC COMPOUNDS AS INHIBITORS OF THROMBIN” (VERSEON CORPORATION, priority 2016, published 2017).
